Values quoted from earlier work as cited in PubChem BioAssay AID1259409 (Chemical Carcinogenesis Research Information System (CCRIS), 2018).

System: rodent chemically induced tumor inhibition, incidence and multiplicity
Assay: CCRIS tumor inhibitor studies
Details: Route [Inhibitor]: ORAL

## O=C1O[C@H]([C@@H](O)CO)C(O)=C1O
Carcinogen: 1,2-DIMETHYLHYDRAZINE, 540-73-8, Dose [Inhibitor]: 0.3% IN DRINKING WATER BEGINNING POST LAST CARCINOGEN DOSE AND CONTINUING FOR DURATION OF STUDY (STUDY DURATION: 55 WK), Species: MOUSE, Strain/Sex: CBA/FEMALE, Target Tissue: Type of Lesion: UTERUS (ENDOMETRIUM): STROMAL SARCOMA, Dose [Carcinogen]: 8 MG/KG BW IN WATER 1/WK FOR 8 WK, Promoter: ESTRADIOL PROPIONATE, 113-38-2
  tumour outcome (control, treated, inhibition, significance): 13/40 (33%), 3/40 (8%), 77%, not calculated
Carcinogen: 1,2-DIMETHYLHYDRAZINE, 540-73-8, Dose [Inhibitor]: 1% IN 20% FAT DIET DAILY STARTING 2 WK BEFORE CARCINOGEN TREATMENT AND CONTINUING FOR DURATION OF STUDY (STUDY DURATION:, Species: RAT, Strain/Sex: F344/FEMALE, Target Tissue: Type of Lesion: COLON: ADENOMA, ADENOCARCINOMA, Dose [Carcinogen]: 150 MG/KG BW IN 0.9% SALINE ADJUSTED TO PH 6.8 ONCE, Promoter: NONE USED
  tumour outcome (control, treated, inhibition, significance): 26%, 0%, 100%, p<0.05
Carcinogen: 1,2-DIMETHYLHYDRAZINE, 540-73-8, Dose [Inhibitor]: 1% IN 20% FAT DIET DAILY STARTING 2 WK BEFORE CARCINOGEN TREATMENT AND CONTINUING FOR DURATION OF STUDY (STUDY DURATION:, Species: RAT, Strain/Sex: F344/FEMALE, Target Tissue: Type of Lesion: KIDNEY: NEPHROBLASTOMA, ADENOCARCINOMA, Dose [Carcinogen]: 150 MG/KG BW IN 0.9% SALINE ADJUSTED TO PH 6.8 ONCE, Promoter: NONE USED
  tumour outcome (control, treated, inhibition, significance): 22%, 0%, 100%, p<0.05
Carcinogen: 1,2-DIMETHYLHYDRAZINE, 540-73-8, Dose [Inhibitor]: 1% IN 20% FAT DIET DAILY STARTING 2 WK BEFORE START OF CARCINOGEN TREATMENT AND CONTINUING FOR DURATION OF STUDY (STUDY, Species: RAT, Strain/Sex: F344/FEMALE, Target Tissue: Type of Lesion: COLON: ADENOCARCINOMA, Dose [Carcinogen]: 20 MG/KG BW IN 0.9% SALINE 1/WK FOR 10 WK, Promoter: NONE USED
  tumour outcome (control, treated, inhibition, significance): 33%, 39%, -18%, not significant
Carcinogen: 1,2-DIMETHYLHYDRAZINE, 540-73-8, Dose [Inhibitor]: 1% IN 20% FAT DIET DAILY STARTING 2 WK BEFORE START OF CARCINOGEN TREATMENT AND CONTINUING FOR DURATION OF STUDY (STUDY, Species: RAT, Strain/Sex: F344/FEMALE, Target Tissue: Type of Lesion: COLON: ADENOMA, Dose [Carcinogen]: 20 MG/KG BW IN 0.9% SALINE 1/WK FOR 10 WK, Promoter: NONE USED
  tumour outcome (control, treated, inhibition, significance): 42%, 39%, 7%, not significant
Carcinogen: 1,2-DIMETHYLHYDRAZINE, 540-73-8, Dose [Inhibitor]: 1% IN 20% FAT DIET DAILY STARTING 2 WK BEFORE START OF CARCINOGEN TREATMENT AND CONTINUING FOR DURATION OF STUDY (STUDY, Species: RAT, Strain/Sex: F344/FEMALE, Target Tissue: Type of Lesion: DUODENUM: ADENOCARCINOMA, ADENOMA, Dose [Carcinogen]: 20 MG/KG BW IN 0.9% SALINE 1/WK FOR 10 WK, Promoter: NONE USED
  tumour outcome (control, treated, inhibition, significance): 25%, 26%, -4%, not significant
Carcinogen: 1,2-DIMETHYLHYDRAZINE, 540-73-8, Dose [Inhibitor]: 1% IN 20% FAT DIET DAILY STARTING 2 WK BEFORE START OF CARCINOGEN TREATMENT AND CONTINUING FOR DURATION OF STUDY (STUDY, Species: RAT, Strain/Sex: F344/FEMALE, Target Tissue: Type of Lesion: EAR DUCT: SQUAMOUS CELL CARCINOMA, Dose [Carcinogen]: 20 MG/KG BW IN 0.9% SALINE 1/WK FOR 10 WK, Promoter: NONE USED
  tumour outcome (control, treated, inhibition, significance): 13%, 13%, 0%, not significant
Carcinogen: 1,2-DIMETHYLHYDRAZINE, 540-73-8, Dose [Inhibitor]: 1% IN 20% FAT DIET DAILY STARTING 2 WK BEFORE START OF CARCINOGEN TREATMENT AND CONTINUING FOR DURATION OF STUDY (STUDY, Species: RAT, Strain/Sex: F344/FEMALE, Target Tissue: Type of Lesion: KIDNEY: NEPHROBLASTOMA, ADENOCARCINOMA, Dose [Carcinogen]: 20 MG/KG BW IN 0.9% SALINE 1/WK FOR 10 WK, Promoter: NONE USED
  tumour outcome (control, treated, inhibition, significance): 13%, 18%, -38%, not significant
Carcinogen: 1,2-DIMETHYLHYDRAZINE, 540-73-8, Dose [Inhibitor]: 1.2% IN DIET DAILY STARTING 2 WK PRIOR TO CARCINOGEN TREATMENT AND CONTINUING FOR DURATION OF STUDY (STUDY DURATION: 28, Species: RAT, Strain/Sex: SPRAGUE-DAWLEY/MALE, Target Tissue: Type of Lesion: COLON: ADENOCARCINOMA, Dose [Carcinogen]: 20 MG/KG BW IN BACTERIOSTATIC SALINE 1/WK FOR 20 WK, Promoter: NONE USED
  tumour outcome (control, treated, inhibition, significance): 64%, 38%, 41%, not calculated
Carcinogen: 3-METHYLCHOLANTHRENE, 56-49-5, Dose [Inhibitor]: 0, 1.25% IN DRINKING WATER FOR DURATION OF STUDY BEGINNING 15 D PRIOR TO CARCINOGEN TREATMENT (STUDY DURATION: 150 D), Species: MOUSE, Strain/Sex: LACA/MALE, Target Tissue: Type of Lesion: GLANDULAR STOMACH: TUMOR, Dose [Carcinogen]: 2.2 MG (AVERAGE DOSE) ON COTTON THREADS IMPLANTED IN GLANDULAR STOMACH, Promoter: NONE USED
  tumour outcome (control, treated, inhibition, significance): 66%, 28%, 58%, p<0.02
Carcinogen: 3-METHYLCHOLANTHRENE, 56-49-5, Dose [Inhibitor]: 0, 2 MG/ML IN DRINKING WATER FOR 6 WK BEGINNING ON FIRST DAY OF CARCINOGEN TREATMENT (STUDY DURATION: 16 WK), Species: MOUSE, Strain/Sex: SWISS/FEMALE, Target Tissue: Type of Lesion: CERVIX: SQUAMOUS CELL CARCINOMA, Dose [Carcinogen]: 600 UG IN BEESWAX IMPREGNATED COTTON THREAD FOR DURATION OF STUDY, Promoter: NONE USED
  tumour outcome (control, treated, inhibition, significance): 16/21 (76%), 5/15 (33%), 57%, p<0.02
Carcinogen: 3-METHYLCHOLANTHRENE, 56-49-5, Dose [Inhibitor]: 0, 2 MG/ML IN DRINKING WATER FOR 10 WK BEGINNING 6 WK AFTER FIRST DAY OF CARCINOGEN TREATMENT (STUDY DURATION: 16 WK), Species: MOUSE, Strain/Sex: SWISS/FEMALE, Target Tissue: Type of Lesion: CERVIX: SQUAMOUS CELL CARCINOMA, Dose [Carcinogen]: 600 UG IN BEESWAX IMPREGNATED COTTON THREAD FOR DURATION OF STUDY, Promoter: NONE USED
  tumour outcome (control, treated, inhibition, significance): 16/21 (76%), 8/12 (67%), 12%, not significant
Carcinogen: 3-METHYLCHOLANTHRENE, 56-49-5, Dose [Inhibitor]: 0, 2 MG/ML IN DRINKING WATER FOR 16 WK (STUDY DURATION: 16 WK), Species: MOUSE, Strain/Sex: SWISS/FEMALE, Target Tissue: Type of Lesion: CERVIX: SQUAMOUS CELL CARCINOMA, Dose [Carcinogen]: 600 UG IN BEESWAX IMPREGNATED COTTON THREAD FOR DURATION OF STUDY, Promoter: NONE USED
  tumour outcome (control, treated, inhibition, significance): 16/21 (76%), 5/15 (33%), 57%, p<0.02
Carcinogen: 7,12-DIMETHYLBENZ[A]ANTHRACENE, 57-97-6, Dose [Inhibitor]: 0, 30 MG/ML IN DRINKING WATER FROM 40-90 D OF AGE THEN 0, 20 MG/ML FROM 90-180 D OF AGE AND 0, 10 MG/ML FROM 180-240 D O, Dose [Inhibitor]: 0, 30 MG/ML IN DRINKING WATER FROM 40-90 D OF AGE THEN 0, 20 MG/ML FROM 90-180 D OF AGE AND 0, 10 MG/ML FROM 180-240 D O, Species: RAT, Strain/Sex: SPRAGUE-DAWLEY/FEMALE, Target Tissue: Type of Lesion: MAMMARY GLAND: ADENOCARCINOMA, FIBROADENOMA, Dose [Carcinogen]: 5 MG IN 0.2 ML SESAME OIL 1/2 D FOR 12 D BEGINNING AT 50 D OF AGE, Promoter: NONE USED
  tumour outcome (control, treated, inhibition, significance): 100%, 57%, 43%, p<0.001
